From US5159085A, “2-anilino phenylacetic acid derivatives as inhibitors of PLA2 and lipoxygenase” (American Home Products Corporation, priority 1991, dated 1992) come the findings set out here.

pIC50: −log10 of the molar value. Counter-ions that a name gives are not always drawn. Like-named read-outs stand apart in the source and are kept apart here.

Test [1] deals with paw edema induced by exogenous PLA2 (snake, A. piscivorus piscivorus). The test can be described thus: In vivo PLA2 murine paw edema assay. On the set-up: species or system mouse (male CD-1). Particulars: for ED50 at +10 min: mouse; for change in vivo at 1 mg/kg: Mus musculus, ip, 0.5 h; for % Change in Edema 30 min / change in vivo at 1 mg/kg: 30 min. Here is the method:
The ability of the compounds of the invention to inhibit paw edema induced by the exogenous administration of PLA2 is measured in the in vivo PLA2 murine paw edema assay.
(§1) The assay is carried out as follows:
Non-fasted, male CD-1 mice (8 weeks old; 31-36 grams) are placed in plastic boxes in groups of six. The right hind paw volume is measured using mercury plethysmography (zero time). […] A solution of purified PLA2, from the diamond back cotton mouth snake (A. piscivorus piscivorus) is prepared in saline at a concentration of 6 μg/ml. Fifty (50) μl (0.3 μg) of this PLA2 solution is injected subcutaneously into the right hind paw with a plastic 1 ml plastic syringe (27 gauge, 1" needle). Paw volume of the injected paw is measured again at 10 minutes, 30 minutes and 60 minutes after PLA2 injection. Animals are euthanized with CO2 at the completion of the study.
The paw edema is calculated by subtracting the zero time volume from the volume recorded at each time period. Mean paw edema for each treatment group is then calculated and expressed as (μl±S.E.). Drug effects are expressed as a percent change from control (vehicle) values. Statistical significance is determined by a one-way analysis of variance with LSD comparison to control (p<0.05). ED50 's are determined using repression analysis.

Test [2] deals with TxB2 synthesis (cyclooxygenase) by rat glycogen-elicited polymorphonuclear leukocytes. As to the kind of experiment: Inhibition of TxB2 synthesis by rat glycogen-elicited PMN (cyclooxygenase). It is filed as cell-based, rat (female Wistar). Particulars: for inhibition at 0.5 µM: negative values denote potentiation of cyclooxygenase; for pIC50: rat PMN, read-out: IC50 (TxB2 synthesis). The procedure:
(§2) Rat polymorphonuclear leukocytes (PMNs) are obtained from female Wistar rats (150-200 g) which receive an injection of 6% glycogen (10 ml i.p.). Rats are sacrificed 18-24 hours post injection by CO2 asphyxiation and the elicited cells are harvested by peritoneal lavage using physiological saline (0.9% NaCl). The exudate is centrifuged at 400×g for 10 minutes. The supernatant fluid is discarded and the cell pellet is resuspended to a concentration of 2.0×10^7 cells/ml in HBSS containing Ca^++ and Mg^++ and 10 μM L-cysteine.
(§3) To 1 ml aliquots of cell suspension, test drugs or vehicle are added, then preincubated at 37° C. for 10 minutes. A 23187 (1 μM), [^3 H]-AA (3.0 μCi/ml) and unlabeled AA (1 μM) are then added and the samples are further incubated for 10 minutes. The reaction is terminated by centrifugation and pelleting cells. Supernatants are then analyzed by HPLC analysis on a 15 cm×4.6 mm ID supelcosil LC-18 (Supelco)(3M) column, using a two solvent system at a flow rate of 1.4 ml total flow as follows:
(§4) Percent solvent changes are accomplished in a linear fashion.
(§5) Injections: 150 μl of each supernatant is injected directly onto column and ^3 H arachidonic acid metabolites are monitored using an on-line radioactivity detector (Ramona, IN/US, Fairfield, NJ).
(§6) Standards: 10^4 -2.0×10^4 dpm of eicosanoids of interest are injected in 90 μl EtOH cocktail.
(§7) Co-chromatography with standard [^3 H] leukotriene B4 (LTB4) in medium of stimulated PMN exposed to drug is compared to that found in medium of stimulated cells exposed to no drug, generating percent inhibition.
(§8) Results are expressed as percent inhibition at a given compound dose or as an IC50 value.
In this assay, the procedure of Example 19 is carried out as described. However, in order to determine cyclooxygenase activity, the samples are co-chromatographed with authentic reference [^3 H]-TxB2.
The results are calculated as in Example 19 and presented below: […]

Test [3] has as its system LTB4 synthesis by rat glycogen-elicited polymorphonuclear leukocytes (lipoxygenase). As to the kind of experiment: Inhibition of LTB4 synthesis by rat glycogen-elicited polymorphonuclear leukocytes (PMN). It is filed as cell-based, rat (female Wistar). The note with it: A 23187 and exogenous AA; for inhibition at 0.5 µM: negative value denotes potentiation.
Excerpt: This is especially true with respect to 5,12-diHETE, which is also denoted as LTB4 [see Ford-Hitchinson, J. Roy. Soc. Med., 74, 831 (1981)]. Compounds which inhibit the PLA2 -mediated release of arachidonic acid thereby effectively prevent the oxidation of arachidonic acid to the various leukotriene products via the lipoxygenase cascade. Accordingly, the specificity of action of PLA2 inhibitors can be determined by the activity of test compounds in this assay, which measures the ability of compounds to inhibit the synthesis of LTB4 by rat glycogen-elicited polymorphonuclear leukocytes (PMN) in the presence of exogenous substrate.
as §1, §2, §3
Gradient: (system is equillibrated with Solvent A)
as §4, §5, §6, §7, §8

Test [4] addresses T1, human synovial fluid PLA2 (Homo sapiens, UniProt P14555).
T1 construct: Purified human synovial fluid; from tissue; host or cells: human synovial fluid
T1 sequence (P14555 21-144): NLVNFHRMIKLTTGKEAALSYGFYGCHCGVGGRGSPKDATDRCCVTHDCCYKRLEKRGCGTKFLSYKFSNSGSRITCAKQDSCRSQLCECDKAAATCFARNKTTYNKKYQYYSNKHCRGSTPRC
As to the kind of experiment: In vitro isolated phospholipase A2 assay, human synovial fluid PLA2. It is filed as biochemical. The note with it: 10 μM; human synovial fluid; negative values denote potentiation; read-out: % Inhibition at 10 μM HSF. The procedure:
The compounds of the invention are tested in an in vitro isolated phospholipase A2 assay to determine the ability of the test compounds to inhibit the release of arachidonic acid from an arachidonic acid-containing substrate by the action of phospholipase A2 enzyme from human and non-human sources.
This assay is carried out as follows:
Into a 15 mL polypropylene tube are added the following:
*pre-incubate at room temperature 30 min prior to substrate addition.
^5 Stock 10 mM prepared in dimethyl sulfoxide. Make 1:2 dilution with
dimethyl sulfoxide and add 1 μ L to 100 μL assay tube.
^6 Two human PLA2 enzymes are used:
b) Purified human synovial fluid.
Incubate the 100 μL reaction mixture for 10 minutes at 37° C. in a shaking water bath. The reaction is terminated by the addition of 2 mL tetrahydrofuran, followed by vortexing. NH2 columns (100 μg/mL--Analytichem International) are conditioned with 0.5 mL tetrahydrofuran followed by 0.5 mL tetrahydrofuran/water (2 mL:0.1 mL, v/v).
The sample is loaded onto the columns and slowly drawn through them. The hydrolyzed arachidonic acid retained in the columns is eluted therefrom with 1 mL tetrahydrofuran/glacial acetic acid (2%). The arachidonic acid is transferred to scintillation vials and quantitated by β-counting analysis. A "total counts" sample is prepared by pipetting 25 μL ^3 H-arachidonate E. coli directly into a scintillation vial to which is added 1 mL tetrahydrofuran. 10 mL aquasol (scintillation cocktail) is added to all samples. [formula]

A further test addresses T2, human platelet PLA2 (Homo sapiens, UniProt P14555).
T2 construct: Semipurified human platelet acid extract PLA2; from tissue; host or cells: human platelets (semipurified acid extract)
T2 sequence (P14555 21-144): T1 sequence (P14555 21-144)
As to the kind of experiment: In vitro isolated phospholipase A2 assay, human platelet PLA2 (arachidonic acid release from 3H-AA E. coli substrate). It is filed as biochemical. Particulars: human platelet; for inhibition at 10 µM: negative values denote potentiation, read-out: % Inhibition at 10 μM HP.

Consider `COc1cccc2c1cc([N+](=O)[O-])c1c(C(=O)O)cc3c(c12)OCO3` [Aristolochic Acid, reference compound], for which, in test [1] (p.o., standard drugs), the ED50 (usually the dose that gives a 50% effect, or the effect in half of the subjects) at +10 min is on record as “Not Active”.

For `C[C@@H]1C[C@H]2[C@@H]3CCC4=CC(=O)C=C[C@]4(C)[C@@]3(F)[C@@H](O)C[C@]2(C)[C@@]1(O)C(=O)CO` [Dexamethasone, reference compound], the “ED50 at +10 min” value in test [1] (p.o. 3 hr, standard drug) came to 10 mg/kg.

For the compound `COC(=O)Cc1cc(OCc2ccc3ccccc3n2)ccc1Nc1c(Cl)cccc1Cl` [Example 1, 2-[(2,6-Dichlorophenyl)amino]-5-(2-quinolinylmethoxy)-benzene acetic acid methyl ester ethanedioate (1:1)], in test [2] (Rattus norvegicus, Leukocyte), the inhibition (usually the change of the read-out against control, counted positive when it falls) at 0.5 µM worked out at 4%. The inhibition at 0.5 µM in test [3] (Leukocyte) came out at 96%. In test [1] (1 mg/kg i.p.), the “% Change in Edema 3 min” value is listed as -10%, the “% Change in Edema 10 min” value is -31% and the change in vivo at 1 mg/kg is -23%. Besides, in test [1] (10 mg/kg i.p.), the “% Change in Edema 3 min” value is recorded as -39%, the “% Change in Edema 10 min” value is listed as -77% and the “% Change in Edema 30 min” value is -37%.

Turning to `O=C(O)Cc1cc(OCc2ccc3ccccc3n2)ccc1Nc1c(Cl)cccc1Cl` [Example 3, 2-[(2,6-Dichlorophenyl)amino]-5-(2-quinolinylmethoxy)benzene acetic acid sodium salt], the negative-log IC50 (pIC50) (commonly the IC50 on a negative log10 scale, so that one unit is a factor of ten) in test [2] (acetic acid sodium salt) is below 6.00. For the same compound, the negative logarithm of the IC50 (pIC50) in test [3] (acetic acid sodium salt) was 7.70. For the same compound, in test [1] (10 mg/kg i.p.), the “% Change in Edema 10 min” value is recorded as “+12%”, the “% Change in Edema 30 min” value is on record as -10% and the “% Change in Edema 60 min” value is “+12%”. Further, the inhibition at 10 µM in test [4] was 21.7%.

With `O=C(O)Cc1cc(OCc2ccc3ccccc3n2)ccc1Nc1c(Cl)cccc1Cl` [Example 4, 2-[(2,6-Dichlorophenyl)amino]-5-(2-quinolinylmethoxy)benzene acetic acid 2-amino-2-(hydroxymethyl)-1,3-propanediol salt (1:1)], the pIC50 in test [2] is 5.43.

For `COC(=O)Cc1cc(OCc2ccc3ccc(Cl)cc3n2)ccc1Nc1c(Cl)cccc1Cl` [Example 5, 5-[(7-Chloro-2-quinolyl)methoxy]-2-[(2,6-dichlorophenyl)amino]benzene acetic acid methyl ester], the inhibition at 0.5 µM in test [2] (Rattus norvegicus, Leukocyte) came to 0%; in test [3] (Leukocyte), 56%. For the same compound, the inhibition at 10 µM in test [2] (Rattus norvegicus, Leukocyte, at 10 μM) was 27%; at human platelet PLA2 it was -5.3%; in test [3] (Leukocyte, at 10 μM), 95%; in test [4] it was -127%.

Take `COC(=O)Cc1cc(OCc2nc3ccccc3n2C)ccc1Nc1c(Cl)cccc1Cl` [Example 10, 2-[(2,6-Dichlorophenyl)amino]-5-[(1-methyl-1H-benzimidazol-2-yl)methoxy]benzene acetic acid methyl ester]: the inhibition at 0.5 µM in test [2] (Rattus norvegicus, Leukocyte) is 32%. Moreover, the inhibition at 0.5 µM in test [3] (Leukocyte) was 65%. In test [1] (1 mg/kg i.p.), the “% Change in Edema 10 min” value is listed as -29% and the change in vivo at 1 mg/kg is -20%. Besides, in test [1] (10 mg/kg i.p.), the “% Change in Edema 10 min” value is -49% and the “% Change in Edema 30 min” value is -36%.

For the compound `Cn1c(COc2ccc(Nc3c(Cl)cccc3Cl)c(CC(=O)O)c2)nc2ccccc21` [Example 11, acetic acid], the inhibition at 0.5 µM was -8% in test [2] (Rattus norvegicus, Leukocyte) and -6% in test [3] (Leukocyte). Also, the inhibition at 10 µM in test [4] was 33.3%.

Regarding `CONC(=O)Cc1cc(OCc2ccc3ccccc3n2)ccc1Nc1c(Cl)cccc1Cl` [Example 12], in test [2] (Rattus norvegicus, Leukocyte), the inhibition at 0.5 µM is -2%. The inhibition at 0.5 µM in test [3] (Leukocyte) is 70%. Moreover, in test [1] (10 mg/kg i.p.), the “% Change in Edema 10 min” value is -15%, the “% Change in Edema 30 min” value is -45% and the “% Change in Edema 60 min” value is on record as -28%. In addition, in test [1] (50 mg/kg p.o.), the “% Change in Edema 10 min” value was -2%, the “% Change in Edema 30 min” value was -36% and the “% Change in Edema 60 min” value is listed as -22%. Further, the inhibition at 10 µM in test [4] is -41.5%.

As for `O=C1Cc2cc(OCc3ccc4ccccc4n3)ccc2N1c1c(Cl)cccc1Cl` [Example 13], the inhibition at 0.5 µM in test [2] (Rattus norvegicus, Leukocyte) came out at 10%; in test [3] (Leukocyte), 89%. For the same compound, at human platelet PLA2 ("at 50 SM"), the “% Inhibition HP” value worked out at 12.5%. Moreover, the inhibition at 10 µM in test [4] is -11%.

Take `O=C1Cc2cc(OCc3ccc4ccccc4n3)ccc2N1c1ccccc1` [Example 15, 1-Phenyl-5-(2-quinolinylmethoxy)-1,3-dihydro-2H-indol-2-one]: the inhibition at 0.5 µM is -9% in test [2] (Rattus norvegicus, Leukocyte) and 40% in test [3] (Leukocyte). Moreover, the inhibition at 10 µM in test [4] was -24%.

For `O=C(O)Cc1cc(OCc2ccc3ccccc3n2)ccc1Nc1ccccc1` [Example 16, 2-(Phenylamino)-5-(2-quinolinylmethoxy)benzene acetic acid], the inhibition at 0.5 µM in test [2] (Rattus norvegicus, Leukocyte) is 10%; in test [3] (Leukocyte), 90%. Also, the inhibition at 10 µM was 14.2% at human platelet PLA2 and -4.3% in test [4].

In the case of `O=C1Cc2cc(OCc3ccc4ccc(Cl)cc4n3)ccc2N1c1c(Cl)cccc1Cl` [Example 18, 1-(2,6-Dichlorophenyl)-5-[7-chloro-2-(quinolinylmethoxy)]-1,3-dihydro-2H-indol-2-one], the values for the inhibition at 10 µM (at human platelet PLA2; in test [4]) were 2.2% and 5.1%, respectively.

Regarding `COc1ccc2cc([C@H](C)C(=O)O)ccc2c1` [Naproxen, reference compound], the “ED50 at +10 min” value in test [1] (p.o., standard drugs) was 18 mg/kg.

For the compound Luffarrellolide [reference compound], in test [1] (p.o., standard drugs), the “ED50 at +10 min” value is given as “Not Active”.
